According to the supplement of paper PMC10307832:

Columns and labels:
Experiment in all cases: relative viability (nuclei count vs DMSO), 5 days (fraction); higher = more cells survive
[1] = compound: COc1cc(-c2nn([C@H]3CC[C@H](N4CCN(C(C)=O)CC4)CC3)c3ncnc(N)c23)ccc1NC(=O)c1cc2ccccc2n1C + Nc1nc2[nH]cc(CCc3ccc(C(=O)N[C@@H](CCC(=O)O)C(=O)O)cc3)c2c(=O)[nH]1 [Pemetrexed] (partner 0.2 µM)
In short: (§1)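 A single step with final 0.05% Triton X-100, 1% formaldehyde and 1 ug/ml Hoechst fixed the cells and stained nuclei 5 days after treatment. Lung cancer cell lines in 1536-well plates had been treated by pin tool the day after seeding with one drug alone or a fixed anchor-drug dose plus five library-drug doses (not always all listed) in √10 steps, and nuclei were counted on 4× images. Relative viability is the ratio of nuclei in treated wells to nuclei in vehicle wells, taken as the median of duplicate plates.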

Midostaurin + Crizotinib = compound: CO[C@@H]1[C@H](N(C)C(=O)c2ccccc2)C[C@H]2O[C@]1(C)n1c3ccccc3c3c4c(c5c6ccccc6n2c5c31)C(=O)NC4 [Midostaurin] + C[C@@H](Oc1cc(-c2cnn(C3CCNCC3)c2)cnc1N)c1c(Cl)ccc(F)c1Cl [Crizotinib] (partner 1 µM)
In short: as §1

Midostaurin + Foretinib = compound: CO[C@@H]1[C@H](N(C)C(=O)c2ccccc2)C[C@H]2O[C@]1(C)n1c3ccccc3c3c4c(c5c6ccccc6n2c5c31)C(=O)NC4 [Midostaurin] + COc1cc2c(Oc3ccc(NC(=O)C4(C(=O)Nc5ccc(F)cc5)CC4)cc3F)ccnc2cc1OCCCN1CCOCC1 [Foretinib] (partner 0.25 µM)
In short: as §1

[2] = compound: COc1cc(-c2nn([C@H]3CC[C@H](N4CCN(C(C)=O)CC4)CC3)c3ncnc(N)c23)ccc1NC(=O)c1cc2ccccc2n1C + CS(=O)(=O)CCNCc1ccc(-c2ccc3ncnc(Nc4ccc(OCc5cccc(F)c5)c(Cl)c4)c3c2)o1 [Lapatinib] (partner 2 µM)
In short: as §1

[3] = compound: COc1cc(-c2nn([C@H]3CC[C@H](N4CCN(C(C)=O)CC4)CC3)c3ncnc(N)c23)ccc1NC(=O)c1cc2ccccc2n1C + CC(C)C[C@H](NC(=O)[C@H](Cc1ccccc1)NC(=O)c1cnccn1)B(O)O [Bortezomib] (partner 0.002 µM)
In short: as §1

Row | Cell Line | relative viability ([1]; first compound 0.0128 µM) | relative viability ([1]; first compound 0.04048 µM) | relative viability ([1]; first compound 0.128 µM) | relative viability ([1]; first compound 1.28 µM) | relative viability (Midostaurin + Crizotinib; first compound 0.01 µM) | relative viability (Midostaurin + Crizotinib; first compound 0.03162 µM) | relative viability (Midostaurin + Crizotinib; first compound 0.1 µM) | relative viability (Midostaurin + Crizotinib; first compound 0.3162 µM) | relative viability (Midostaurin + Foretinib; first compound 0.01 µM) | relative viability (Midostaurin + Foretinib; first compound 0.03162 µM) | relative viability (Midostaurin + Foretinib; first compound 0.1 µM) | relative viability (Midostaurin + Foretinib; first compound 0.3162 µM) | relative viability ([2]; first compound 0.0128 µM) | relative viability ([2]; first compound 0.04048 µM) | relative viability ([2]; first compound 0.128 µM) | relative viability ([2]; first compound 1.28 µM) | relative viability ([3]; first compound 0.0128 µM) | relative viability ([3]; first compound 0.04048 µM) | relative viability ([3]; first compound 0.128 µM) | relative viability ([3]; first compound 1.28 µM)
1 | HCC-366 | 0.141 | 0.24 | 0.208 | 0.232 | 0.504 | 0.505 | 0.445 | 0.522 | 0.932 | 0.957 | 0.81 | 0.75 | 1.09 | 0.998 | 1.07 | 0.66 | 0.951 | 0.859 | 1.09 | 0.849
2 | HCC-827 | 0.253 | 0.251 | 0.211 | 0.238 | 0.856 | 0.844 | 0.858 | 0.905 | 0.98 | 1.04 | 1.01 | 1.05 | 0.192 | 0.172 | 0.182 | 0.204 | 0.831 | 1.17 | 0.99 | 0.676
3 | HOP-62 | 0.382 | 0.332 | 0.289 | 0.387 | 0.846 | 0.624 | 0.988 | 1.15 | 1.14 | 1.04 | 1.16 | 1.2 | 1.09 | 0.891 | 0.865 | 1.03 | 0.845 | 0.883 | 0.992 | 0.621
4 | LC-2-ad | 0.304 | 0.277 | 0.243 | 0.275 | 0.469 | 0.428 | 0.485 | 0.483 | 0.919 | 0.897 | 0.914 | 1.04 | 0.988 | 0.817 | 0.847 | 0.961 | 1.09 | 1.12 | 1.06 | 1.01
5 | LCLC-97TM1 | 0.182 | 0.185 | 0.171 | 0.19 | 0.418 |  | 0.205 | 0.304 | 1 | 0.937 | 0.817 | 0.913 | 0.922 | 0.553 | 0.9 | 1.08 | 0.35 | 0.327 | 0.567 | 0.584
6 | LOU-NH91 | 0.395 | 0.348 | 0.363 | 0.433 | 0.753 | 0.748 | 0.758 | 0.721 | 0.976 | 0.903 | 1.01 | 1.01 | 0.756 | 0.689 | 0.747 | 0.679 | 0.498 | 0.522 | 0.515 | 0.518
7 | LU99A | 0.162 | 0.225 | 0.169 | 0.252 | 0.603 | 0.634 | 0.541 | 0.533 | 0.708 | 0.854 | 0.695 | 0.783 | 1.11 | 1.1 | 1.12 | 0.904 | 1.34 | 1.19 | 1.04 | 1.3
8 | LXF-289 | 1.01 | 0.881 | 0.901 | 1.16 | 0.815 | 0.78 | 0.764 | 0.831 | 0.967 | 0.941 | 0.897 | 0.988 | 1.01 | 0.86 | 0.876 | 1.02 | 1.07 | 0.963 | 1 | 1.18
